Source: patent US11331327B2, “Antibacterial use of halogenated salicylanilides” (UNION therapeutics A/S, priority 2014, dated 2022)
In brackets after ≈: the same amount, converted by molar mass. Where two headings read alike, the source gives them in different places.

System: S. aureus clinical isolates and S. aureus ATCC 29213
Assay: MIC assay according to CLSI criteria, Example 2, S. aureus strains
Format: cell-based, Staphylococcus aureus
Settings: Staphylococcus aureus, read-out: MIC
Method: Strains were conserved in Luria Bertani (LB) Broth (S. aureus) or Brain Heart Infusion (BHI) (S. pyogenes) supplemented with glycerol 15% (v/v) at −80° C., and reactivated by isolation on LB (S. aureus) or BHI (S. pyogenes) agar plates. Strains were cultivated in Mueller Hinton (MH) Broth-cation adjusted (S. aureus) or BHI (S. pyogenes). All strains were cultivated aerobically (microaerobically for S. pyogenes strains) at 37° C.
Bacterial cultures were stopped in their exponential growth phase and plates were inoculated with the approximate concentration of 5×10^5 cells per well. Plates were incubated at 37° C. for 18 hours (S. aureus) or 24 hours (S. pyogenes).

C/C(=C\C(=O)OCCCCCCCCC(=O)O)C[C@@H]1OC[C@H](C[C@@H]2O[C@H]2[C@@H](C)[C@H](C)O)[C@@H](O)[C@H]1O [Mupirocin]
MIC (ATCC29213, strain 9-1862936): 0.25 µg/mL (≈ 0.499 µM) | MIC (ATCC29213, strain 9-2625962): 0.5 µg/mL (≈ 0.999 µM) | MIC (ATCC29213, strain 9-2642158): 0.25 µg/mL (≈ 0.499 µM) | MIC (ATCC29213, strain 9-2955245): 0.25 µg/mL (≈ 0.499 µM) | MIC (ATCC29213, strain 9-26422166): 0.25 µg/mL (≈ 0.499 µM) | MIC (ATCC29213, strain 000040C): 0.25 µg/mL (≈ 0.499 µM) | MIC (ATCC29213, strain 000041C): 0.25 µg/mL (≈ 0.499 µM) | MIC (ATCC29213, strain 000274T): 0.5 µg/mL (≈ 0.999 µM) | MIC (ATCC29213, strain 114660U): 0.25 µg/mL (≈ 0.499 µM) | MIC (ATCC29213, strain 115015T): 0.5 µg/mL (≈ 0.999 µM) | MIC (ATCC29213, strain 115242C): 0.25 µg/mL (≈ 0.499 µM) | MIC (ATCC29213, strain 115263C): 0.25 µg/mL (≈ 0.499 µM) | MIC (ATCC29213, strain 115268C): 0.5 µg/mL (≈ 0.999 µM) | MIC (ATCC29213, strain 115273C): 0.25 µg/mL (≈ 0.499 µM) | MIC (ATCC29213, strain 115295C): 0.25 µg/mL (≈ 0.499 µM) | MIC (ATCC29213, strain 115303C): 0.25 µg/mL (≈ 0.499 µM) | MIC (ATCC29213, strain 115370U): 0.125 µg/mL (≈ 0.25 µM) | MIC (ATCC29213, strain 115427C): 0.25 µg/mL (≈ 0.499 µM) | MIC (ATCC29213, strain 115445C): 0.25 µg/mL (≈ 0.499 µM) | MIC (ATCC29213, strain 115561C): 0.5 µg/mL (≈ 0.999 µM) | MIC (ATCC29213, strain 115584D): 0.5 µg/mL (≈ 0.999 µM) | MIC (ATCC29213, strain 115628T): 0.25 µg/mL (≈ 0.499 µM) | MIC (ATCC29213, strain 115690C): 0.125 µg/mL (≈ 0.25 µM) | MIC (ATCC29213, strain 115691T): 0.25 µg/mL (≈ 0.499 µM) | MIC (ATCC29213, strain 115740E): 0.25 µg/mL (≈ 0.499 µM) | MIC (ATCC29213, strain 115810E): 0.25 µg/mL (≈ 0.499 µM) | MIC (ATCC29213, strain 115903T): 0.5 µg/mL (≈ 0.999 µM) | MIC (ATCC29213, strain 116122T): 0.5 µg/mL (≈ 0.999 µM) | MIC (ATCC29213, strain ATCC 29213): 0.125 µg/mL (≈ 0.25 µM) | MIC (ATCC29213, strain E5-1029252): 0.5 µg/mL (≈ 0.999 µM) | MIC (ATCC29213, strain E5-1029558): 0.5 µg/mL (≈ 0.999 µM) | MIC (ATCC29213, strain E5-1030440): 0.25 µg/mL (≈ 0.499 µM) | MIC (ATCC29213, strain E5-1030469): 0.25 µg/mL (≈ 0.499 µM) | MIC (ATCC29213, strain E5-1030472): 0.5 µg/mL (≈ 0.999 µM) | MIC (ATCC29213, strain E5-1030482): 0.25 µg/mL (≈ 0.499 µM) | MIC (ATCC29213, strain E5-1033076 (first line, r202)): 0.25 µg/mL (≈ 0.499 µM) | MIC (ATCC29213, strain E5-1033076 (second line, r203)): 0.25 µg/mL (≈ 0.499 µM) | MIC (ATCC29213, strain E5-1033088): 0.25 µg/mL (≈ 0.499 µM) | MIC (ATCC29213, strain E5-1033091): 0.25 µg/mL (≈ 0.499 µM) | MIC (ATCC29213, strain E5-1035277): 0.5 µg/mL (≈ 0.999 µM) | MIC (ATCC29213, strain E5-1035284): 0.25 µg/mL (≈ 0.499 µM) | MIC (ATCC29213, strain E5-1035775): 0.25 µg/mL (≈ 0.499 µM) | MIC (ATCC29213, strain E5-1035779): 0.5 µg/mL (≈ 0.999 µM) | MIC (ATCC29213, strain E5-1037958): 0.5 µg/mL (≈ 0.999 µM) | MIC (ATCC29213, strain E5-1037971): 0.25 µg/mL (≈ 0.499 µM) | MIC (ATCC29213, strain E5-1038279): 0.25 µg/mL (≈ 0.499 µM) | MIC (ATCC29213, strain E5-1038286): 0.5 µg/mL (≈ 0.999 µM) | MIC (ATCC29213, strain E5-1038294): 0.25 µg/mL (≈ 0.499 µM) | MIC (ATCC29213, strain E5-1039684): 0.25 µg/mL (≈ 0.499 µM) | MIC (ATCC29213, strain E5-1039697): 0.25 µg/mL (≈ 0.499 µM) | MIC (ATCC29213, strain E5-1041977): 0.5 µg/mL (≈ 0.999 µM) | MIC (ATCC29213, strain E5-1041979): 0.5 µg/mL (≈ 0.999 µM) | MIC (ATCC29213, strain E5-1041980): 0.25 µg/mL (≈ 0.499 µM) | MIC (ATCC29213, strain E5-1041987): 0.25 µg/mL (≈ 0.499 µM) | MIC (ATCC29213, strain E5-1043184): 0.5 µg/mL (≈ 0.999 µM) | MIC (ATCC29213, strain E5-1043668): 0.25 µg/mL (≈ 0.499 µM) | MIC (ATCC29213, strain E5-1045179): 0.25 µg/mL (≈ 0.499 µM) | MIC (ATCC29213, strain E5-1046019): 0.25 µg/mL (≈ 0.499 µM) | MIC (ATCC29213, strain E5-1046020): 0.25 µg/mL (≈ 0.499 µM) | MIC (ATCC29213, strain E5-1046039): 0.25 µg/mL (≈ 0.499 µM) | MIC (ATCC29213, strain E5-1046070): 0.5 µg/mL (≈ 0.999 µM) | MIC (ATCC29213, strain E5-1046074): 0.25 µg/mL (≈ 0.499 µM) | MIC (ATCC29213, strain E5-1046085): 0.5 µg/mL (≈ 0.999 µM) | MIC (ATCC29213, strain E5-1046096): 0.5 µg/mL (≈ 0.999 µM) | MIC (ATCC29213, strain E5-1046296): 1 µg/mL (≈ 2 µM) | MIC (ATCC29213, strain E5-1046297): 0.25 µg/mL (≈ 0.499 µM) | MIC (ATCC29213, strain E5-1046298): 0.25 µg/mL (≈ 0.499 µM) | MIC (ATCC29213, strain E5-1046723): 0.25 µg/mL (≈ 0.499 µM) | MIC (ATCC29213, strain E5-1047585): 0.25 µg/mL (≈ 0.499 µM) | MIC (ATCC29213, strain E5-1047606): 0.5 µg/mL (≈ 0.999 µM) | MIC (ATCC29213, strain E5-1047924): 0.5 µg/mL (≈ 0.999 µM) | MIC (ATCC29213, strain E5-1048204): 0.25 µg/mL (≈ 0.499 µM) | MIC (ATCC29213, strain E5-1048428): 0.25 µg/mL (≈ 0.499 µM) | MIC (ATCC29213, strain E5-1048654): 0.25 µg/mL (≈ 0.499 µM) | MIC (ATCC29213, strain E5-1048670): 0.5 µg/mL (≈ 0.999 µM) | MIC (ATCC29213, strain EEFIC 01): 0.125 µg/mL (≈ 0.25 µM) | MIC (ATCC29213, strain EEFIC 02): 0.125 µg/mL (≈ 0.25 µM) | MIC (ATCC29213, strain K000772): 0.125 µg/mL (≈ 0.25 µM) | MIC (ATCC29213, strain K000796): 0.5 µg/mL (≈ 0.999 µM) | MIC (ATCC29213, strain K000863): 0.5 µg/mL (≈ 0.999 µM) | MIC (ATCC29213, strain K000864): 0.25 µg/mL (≈ 0.499 µM) | MIC (ATCC29213, strain K000866): 0.5 µg/mL (≈ 0.999 µM) | MIC (ATCC29213, strain K115498): 0.5 µg/mL (≈ 0.999 µM) | MIC (ATCC29213, strain K115688): 0.25 µg/mL (≈ 0.499 µM) | MIC (ATCC29213, strain K115689): 0.25 µg/mL (≈ 0.499 µM) | MIC (ATCC29213, strain R000019): 0.5 µg/mL (≈ 0.999 µM) | MIC (ATCC29213, strain R000020): 0.5 µg/mL (≈ 0.999 µM) | MIC (ATCC29213, strain R000024): 0.5 µg/mL (≈ 0.999 µM) | MIC (ATCC29213, strain U115579): 0.5 µg/mL (≈ 0.999 µM) | MIC (ATCC 29213 / MRSA, strain MRSA 01): 0.25 µg/mL (≈ 0.499 µM) | MIC (ATCC 29213 / MRSA, strain MRSA 02): 0.25 µg/mL (≈ 0.499 µM) | MIC (ATCC 29213 / MRSA, strain MRSA 03): 0.25 µg/mL (≈ 0.499 µM) | MIC (ATCC 29213 / MRSA, strain MRSA 04): 0.25 µg/mL (≈ 0.499 µM) | MIC (ATCC 29213 / MRSA, strain MRSA 05): 0.125 µg/mL (≈ 0.25 µM) | MIC (ATCC 29213 / MRSA, strain MRSA 06): 0.25 µg/mL (≈ 0.499 µM) | MIC (ATCC 29213 / MRSA, strain MRSA 07): 0.25 µg/mL (≈ 0.499 µM) | MIC (ATCC 29213 / MRSA, strain MRSA 08): > 16 µg/mL | MIC (ATCC 29213 / MRSA, strain MRSA 09): 0.25 µg/mL (≈ 0.499 µM) | MIC (ATCC 29213 / MRSA, strain MRSA 10): 0.25 µg/mL (≈ 0.499 µM) | MIC (ATCC 29213 / MRSA, strain MRSA 11): 0.5 µg/mL (≈ 0.999 µM) | MIC (ATCC 29213 / MRSA, strain MRSA 12): 0.125 µg/mL (≈ 0.25 µM) | MIC (ATCC 29213 / MRSA, strain MRSA 13): 0.25 µg/mL (≈ 0.499 µM) | MIC (ATCC 29213 / MRSA, strain MRSA 14): 0.125 µg/mL (≈ 0.25 µM)
